Measured values from the supplement of paper PMC13380429.

Key:
Settings in all cases: 72 h
Vero E6 [1] = assay: drug sensitivity score (DSS) for viability; higher = more toxic; extreme values may be limits of the assay
HepG2 [2] = assay: as above
Calu-3 [3] = assay: as above
Caco-2 [4] = assay: as above
U2OS [5] = assay: as above
Vero E6 [6] = assay: relative viability EC50 (midpoint between 100% and the lowest measured viability); higher = less toxic
HepG2 [7] = assay: as above
Calu-3 [8] = assay: as above
Caco-2 [9] = assay: as above
U2OS [10] = assay: as above
Vero E6 [11] = assay: cell viability relative to DMSO; higher = less toxic
HepG2 [12] = assay: as above
Calu-3 [13] = assay: as above
Caco-2 [14] = assay: as above
U2OS [15] = assay: as above

Structure (SMILES)	drug sensitivity score (Vero E6 [1])	drug sensitivity score (HepG2 [2])	drug sensitivity score (Calu-3 [3])	drug sensitivity score (Caco-2 [4])	drug sensitivity score (U2OS [5])	relative viability EC50 (Vero E6 [6])	relative viability EC50 (HepG2 [7])	relative viability EC50 (Calu-3 [8])	relative viability EC50 (Caco-2 [9])	relative viability EC50 (U2OS [10])	cell viability (Vero E6 [11]; 1 nM)	cell viability (Vero E6 [11]; 10 nM)	cell viability (Vero E6 [11]; 100 nM)	cell viability (Vero E6 [11]; 1000 nM)	cell viability (Vero E6 [11]; 10000 nM)	cell viability (HepG2 [12]; 1 nM)	cell viability (HepG2 [12]; 10 nM)	cell viability (HepG2 [12]; 100 nM)	cell viability (HepG2 [12]; 1000 nM)	cell viability (HepG2 [12]; 10000 nM)	cell viability (Calu-3 [13]; 1 nM)	cell viability (Calu-3 [13]; 10 nM)	cell viability (Calu-3 [13]; 100 nM)	cell viability (Calu-3 [13]; 1000 nM)	cell viability (Calu-3 [13]; 10000 nM)	cell viability (Caco-2 [14]; 1 nM)	cell viability (Caco-2 [14]; 10 nM)	cell viability (Caco-2 [14]; 100 nM)	cell viability (Caco-2 [14]; 1000 nM)	cell viability (Caco-2 [14]; 10000 nM)	cell viability (U2OS [15]; 1 nM)	cell viability (U2OS [15]; 10 nM)	cell viability (U2OS [15]; 100 nM)	cell viability (U2OS [15]; 1000 nM)	cell viability (U2OS [15]; 10000 nM)
Cc1nccn1CC1CCc2c(c3ccccc3n2C)C1=O (stereo not given) [ondansetron]	0	0	0	0	0	> 10 µM	> 10 µM	> 10 µM	> 10 µM	> 10 µM	101%	97.4%	103%	95.6%	103%	95.6%	83.5%	97%	105%	93.3%	84.8%	90.1%	81.6%	97.6%	89.2%	102%	99.4%	94.1%	81.2%	104%	96.5%	99.4%	103%	99.4%	102%
Cn1cc(C(=O)C(=O)N[C@H]2CN3CCC2CC3)c2ccccc21	0	0	0	0	0	> 10 µM	> 10 µM	> 10 µM	> 10 µM	> 10 µM	112%	114%	105%	97.9%	98.5%	108%	94.2%	114%	95.3%	96.9%	99.9%	102%	98.9%	100%	94.5%	95.7%	99.6%	104%	99.9%	110%	96.8%	107%	99.2%	101%	96.1%
Cc1cc(O)c2c(c1)C(=O)c1cccc(O)c1C2=O [chrysophanic-acid]	0	0	0	0.8	0	> 10 µM	> 10 µM	> 10 µM	> 10 µM	> 10 µM	93.5%	97.3%	100%	93.5%	96.1%	98.4%	104%	97.8%	95.7%	105%	104%	98.1%	92.4%	91.2%	93%	102%	91.2%	92%	92.5%	88.9%	99.5%	103%	96.7%	104%	97.7%
CCc1ccc(/C=C/C(=O)Nc2ccc(C(C)=O)cc2)o1 [heclin]	0	0.4	0.1	0	0	> 10 µM	> 10 µM	> 10 µM	> 10 µM	> 10 µM	102%	103%	98.9%	99.9%	103%	93.6%	95.6%	88.5%	92.3%	85.6%	98.5%	106%	95%	99.6%	87.3%	91.1%	102%	91.4%	95.2%	88.4%	93.2%	98.6%	96.3%	94.2%	90.3%
C1COC(NC(C2CC2)C2CC2)=N1 [rilmenidine]	0	0	0	0	0	> 10 µM	> 10 µM	> 10 µM	> 10 µM	> 10 µM	95.9%	99.1%	95.3%	101%	97.4%	99.3%	110%	97.2%	100%	103%	98.6%	82.1%	109%	95.8%	105%	103%	100%	103%	93.4%	104%	104%	97%	108%	98.2%	104%
COc1cc(C(=O)NCC2(N(C)C)CCCC2)cc(OC)c1OCc1ccccc1	0	0.3	0.1	0	0	> 10 µM	> 10 µM	> 10 µM	> 10 µM	> 10 µM	104%	99.9%	107%	99.4%	95.8%	97.3%	106%	101%	88.8%	89.6%	94.3%	92.1%	96.7%	103%	85.8%	95.5%	98.1%	103%	97.3%	93.5%	100%	104%	97%	104%	95.9%
COc1cccc(N(C)C(=S)Oc2ccc3c(c2)CCCC3)n1 [liranaftate]	0	0	0	0	0	> 10 µM	> 10 µM	> 10 µM	> 10 µM	> 10 µM	97.2%	99.4%	99.6%	95.2%	99.3%	105%	97.7%	101%	100%	110%	96.9%	98.4%	102%	105%	97.6%	97.4%	97.7%	96.2%	109%	97.5%	97.2%	98.3%	95.5%	96.6%	95.8%
